Counter-ions that a name gives are not always drawn. Like-named read-outs stand apart in the source and are kept apart here.
Columns and labels:
Format in all cases: cell-based, human
UOK257-FLCN^+ cells = assay: SRB growth inhibition assay in UOK257-FLCN^+ cells; conditions: 72 hours continuous exposure, mean ± SE (n), read-out: GI50 nM in UOK-FLCN^+
Source text: (§1) Human renal carcinoma of BHD origin cells UOK-257 (UOK-FLCN^−) and FLCN transfected UOK-257 cells UOK-FLCN^+ (Yang et al Cancer Genet Cytogenet. 2008 Jan. 15; 180(2):100-9) were provided by Dr Marston Linehan and Dr. Laura S Schmidt (Urologic Oncology Branch, Centre for Cancer Research, National Cancer Institute, National Institutes of Health, Bethesda, Md. 20892, USA). UOK-257 is the only RCC cell line that has been derived from a patient with BHD and harbours a germline FLCN frameshift mutation (c.1285dupC) (predicted, in the absence of nonsense mediated mRNA decay, to lead to premature protein truncation (p.His429ProfsX27) (Yang et al., Cancer Genet Cytogenet, 2008 Jan. 15; 180(2):100-9). We are not aware of any sporadic RCC cell lines with homozygous FLCN inactivation. FTC-133 cells were purchased from ECACC (Salisbury, United Kingdom). These cells are a non-RCC cell line derived from human thyroid carcinoma. 786-0 cells were available from the author's lab (Clifford et al., Hum Mol Genet. 2001 May 1; 10(10):1029-38). 786-O is a kidney cancer cell line that harbours an inactivating VHL gene mutation (c.311delG p.G104fs*55). All cell lines were cultured in DMEM with supplement of 10% foetal bovine serum except for FTC-133 cells which were incubated in medium with DMEM and Hens (1:1).
(§2) The sensitivity of the cell lines to drug-induced cell growth inhibition was determined using the sulphorhodamine B assay (SRB) as described by Lu et al., Clin Cancer Res. 2001:7:2114-23. Briefly, adherent exponentially growing cells were seeded into 96-well plates at 3-5×10^3 cells/100 μl/well. After 20-24 h at 37° C., drugs were added at the appropriate drug concentrations to the wells (final DMSO conc. 1%) as indicated in the Results section. […] The absorbance per well was measured at 570 nm on a Victor X3 Multilabel Plate Reader (PerkinElmor, Beaconsfield, United Kingdom).
UOK-257 is the only RCC cell line that has been derived from a patient with BHD and harbours a germline FLCN frameshift mutation (c.1285dupC) (predicted, in the absence of nonsense mediated mRNA decay, to lead to premature protein truncation (p.His429ProfsX27) (Yang et al Cancer Genet Cytogenet, 2008 Jan. 15; 180(2):100-9). Both UOK257-FLCN^− and UOK257-FLCN^+ cells were examined for their sensitivities to growth inhibition induced by 15 compounds selected from the COMPARE analysis. Various concentrations of compounds were introduced into the cells 24 hrs after seeding, incubation was continued for 72 hours and growth inhibition was assessed using the suiphorhodamine B (SRB) assay. GI50 values, defined as the concentration of compounds required to inhibit growth by 50%, were then calculated. The ratio of GI50 value from UOK257-FLCN^+ and UOK257-FLCN^− were calculated and used as an indicator for the sensitivity to FLCN mutant cells.

UOK257-FLCN^− cells = assay: SRB growth inhibition assay in UOK257-FLCN^− cells; conditions: for GI50: SRB assay, 72 hours continuous exposure, mean ± SE (n), read-out: GI50 nM in UOK-FLCN^−; for GI50 Ratio of UOK-FLCN^+/UOK-FLCN^−: ratio>1 = more inhibitory to FLCN^− cells; for fold difference in the GI50 values between FLCN-null and FLCN-wild type UOK257 cells: GI50 higher in FLCN-wild type cells (FLCN-null more sensitive)
Source text: as §1
as §2, with “μl/well.” for “μl/well. After 20-24 h at 37° C., drugs were added at the appropriate drug concentrations to the wells (final DMSO conc. 1%) as indicated in the Results section.”
GI50 values, defined as the concentration of compounds required to inhibit growth by 50%, were then calculated. The ratio of GI50 value from UOK257-FLCN^+ and UOK257-FLCN^− were calculated and used as an indicator for the sensitivity to FLCN mutant cells.

[1] = system: 786-O cells with mutant VHL; assay: SRB growth inhibition in 786-O cells with mutant VHL; conditions: SRB assay, 72 hours
Source text: as §1, §2
Cells were exposed continuously to various concentrations of drugs for 72 hours. GI50 values were determined as the concentrations at 50% growth inhibition from at least three experiments.

[2] = system: FTC-133 cells transfected with empty vector; assay: SRB growth inhibition in FTC-133 cells, empty vector; conditions: SRB assay
Source text: as §1
as §2, with “μl/well.” for “μl/well. After 20-24 h at 37° C., drugs were added at the appropriate drug concentrations to the wells (final DMSO conc. 1%) as indicated in the Results section.”
(§3) A FLCN containing construct was introduced into parental FTC-133 cells and stably transfected cells were selected. SRB growth inhibition assay was carried out in cells transfected with empty vector and low FLCN and high FLCN expression.
as §3

COc1cccc2c1C(=O)c1c(O)c3c(c(O)c1C2=O)C[C@@](O)(C(=O)CO)C[C@@H]3O[C@H]1C[C@H](N)[C@H](O)[C@H](C)O1 [doxorubicin (adriamycin), doxorubicin]
GI50 (UOK257-FLCN^+ cells; Homo sapiens): 581 ± 109 nM | GI50 (UOK257-FLCN^− cells; Homo sapiens): 423 ± 54 nM | GI50 Ratio of UOK-FLCN^+/UOK-FLCN^− (UOK257-FLCN^− cells): 1.37

CC[C@]1(O)C[C@H]2CN(CCc3c([nH]c4ccccc34)[C@@](C(=O)OC)(c3cc4c(cc3OC)N(C=O)[C@H]3[C@@](O)(C(=O)OC)[C@H](OC(C)=O)[C@]5(CC)C=CCN6CC[C@]43[C@@H]65)C2)C1 [vincristine sulphate, vincristine sulfate]
GI50 (UOK257-FLCN^+ cells; Homo sapiens): 56.4 ± 17.5 nM | fold difference in the GI50 values between FLCN-null and FLCN-wild type UOK257 cells (UOK257-FLCN^− cells): ~2 fold | GI50 (UOK257-FLCN^− cells; Homo sapiens): 30.1 ± 10.3 nM | GI50 Ratio of UOK-FLCN^+/UOK-FLCN^− (UOK257-FLCN^− cells): 1.88 | change in growth inhibition for 786-0 cells with/without VHL expression (in words) [1]: no significant change | differential sensitivity in FTC-133 cells with different levels of FLCN expression (in words) [2]: no selective vincristine sensitivity

C(=N\NC1=NCCN1)/c1c2ccccc2c(/C=N/NC2=NCCN2)c2ccccc12 [bisantrene hydrochloride]
GI50 (UOK257-FLCN^+ cells; Homo sapiens): 1340 ± 602 nM | GI50 (UOK257-FLCN^− cells; Homo sapiens): 1750 ± 288 nM | GI50 Ratio of UOK-FLCN^+/UOK-FLCN^− (UOK257-FLCN^− cells): 0.77

COc1cc([C@@H]2c3cc4c(cc3[C@@H](O[C@@H]3O[C@@H]5CO[C@@H](c6cccs6)O[C@H]5[C@H](O)[C@H]3O)[C@H]3COC(=O)[C@H]23)OCO4)cc(OC)c1O [VM-26 (teniposide), teniposide]
GI50 (UOK257-FLCN^+ cells; Homo sapiens): 849 ± 358 nM | GI50 (UOK257-FLCN^− cells; Homo sapiens): 773 ± 162 nM | GI50 Ratio of UOK-FLCN^+/UOK-FLCN^− (UOK257-FLCN^− cells): 1.10

COc1cccc2c1C(=O)c1c(O)c3c(c(O)c1C2=O)C[C@@](O)(C(C)=O)C[C@@H]3O[C@H]1C[C@H](N(Cc2ccccc2)Cc2ccccc2)[C@@H](O)[C@H](C)O1 [N,N-dibenzyldaunomycin]
GI50 (UOK257-FLCN^+ cells): 1270 ± 549 nM | GI50 (UOK257-FLCN^− cells): 5740 ± 918 nM | GI50 Ratio of UOK-FLCN^+/UOK-FLCN^− (UOK257-FLCN^− cells): 0.22

CC(=O)O[C@@H]1[C@@H](O)[C@H](O[C@H]2[C@H](OC(=O)[C@H]3CC[C@@H]4[C@H](C3)O[C@@]3(C[C@H](OC(=O)/C=C/c5ccccc5)[C@H](C)CO3)[C@]43CO3)O[C@H](C)[C@@H](O)[C@@H]2OC(C)=O)O[C@H](C)[C@H]1O [phyllanthoside]
GI50 (UOK257-FLCN^+ cells; Homo sapiens, 72 h): 427 ± 97 nM | fold difference in the GI50 values between FLCN-null and FLCN-wild type UOK257 cells (UOK257-FLCN^− cells): ~2 fold | GI50 (UOK257-FLCN^− cells; Homo sapiens): 199 ± 79 nM | GI50 Ratio of UOK-FLCN^+/UOK-FLCN^− (UOK257-FLCN^− cells): 2.15

CO[C@@H]1C[C@](C)(O)Cc2cc3c(c(O)c21)C(=O)c1c(O)cc2c(c1C3=O)O[C@@H]1O[C@@]2(C)[C@H](O)[C@@H](N(C)C)[C@@H]1O [menogaril]
GI50 (UOK257-FLCN^+ cells; Homo sapiens): 757 ± 117 nM | GI50 (UOK257-FLCN^− cells; Homo sapiens): 588 ± 57 nM | GI50 Ratio of UOK-FLCN^+/UOK-FLCN^− (UOK257-FLCN^− cells): 1.29

— patent US20130150317A1, “COMPOUNDS FOR THE TREATMENT OF RENAL CELL CARCINOMA” (Myrovlytis Technology Ventures Limited, priority 2010, published 2013)
